Test in all cases: ≥ marks a high value that may be exact or a test limit, other limits are often not marked, values filed in µg/mL are converted to µM
Assay [1] relates to Xanthomonas axonopodis pv. phaseoli ATCC 9563.
The subject of assay [2] is Pseudomonas syringae.
Assay [3] deals with Proteus vulgaris KCTC 2433.
Assay [4] concerns Bacillus subtilis KCTC 1998.
The test system of assay [5] is Listeria monocytogenes ATCC 3710.
The test system of assay [6] is Escherichia coli ATCC 25922.
Assay [7] has as its system Pseudomonas aeruginosa ATCC 15692.
Assay [8] deals with Staphylococcus aureus ATCC 29213.
The subject of assay [9] is Salmonella typhimurium TA100.
Assay [10] has as its system Micrococcus luteus DSM 20030.
The subject of assay [11] is Escherichia coli K-12 594.
For assay [12], the system named is Staphylococcus aureus ATCC 6538P.
Assay [13] concerns Staphylococcus aureus SR1550.
Assay [14] concerns Penicillium expansum EPS 26.
Assay [15] concerns Fusarium oxysporum f. sp. lycopersici ATCC 201829.
Assay [16] concerns Rhizopus stolonifer CECT 2344.
Assay [17] concerns Aspergillus niger CECT 2694.
Assay [18] relates to Fusarium solani MTCC 10158.
Assay [19] deals with Candida albicans NCTC 3179.
Assay [20] has as its system Staphylococcus aureus ATCC 25923.
The test system of assay [21] is Escherichia coli.
The test system of assay [22] is Trichosporon beigelii.
Assay [23] concerns Staphylococcus epidermidis.
For assay [24], the system named is Bacillus subtilis.
For assay [25], the system named is Listeria monocytogenes KCTC 3710.
Assay [26] has as its system Aspergillus fumigatus KCTC 6145.
Assay [27] deals with Escherichia coli O157:H7 ATCC 43895.
The subject of assay [28] is Botrytis cinerea.
Assay [29] relates to Saccharomyces cerevisiae.
Assay [30] deals with Aspergillus flavus KCTC 9471.
For assay [31], the system named is Pseudomonas aeruginosa.
Assay [32] relates to Proteus vulgaris.
Assay [33] relates to Salmonella typhimurium.
The test system of assay [34] is Staphylococcus aureus.
Assay [35] has as its system Fusarium verticillioides.
The subject of assay [36] is Candida albicans KCTC 7270.

Values after ≈ are worked out from the molar mass of the structure shown. Values joined by “and” are separate entries in the source; they are usually repeats but may differ in a detail not shown here. Equal entries are not always repeated.

Consider eight compounds from DBAASP.

`CC[C@H](C)[C@H](NC(=O)[C@H](CCCCN)NC(=O)[C@H](CC(N)=O)NC(=O)[C@H](CCCCN)NC(=O)[C@H](CC(C)C)NC(=O)[C@H](Cc1ccc(O)cc1)NC(=O)[C@H](CCC(N)=O)NC(=O)[C@H](CCCN=C(N)N)NC(=O)[C@@H](NC(=O)[C@@H](NC(=O)[C@H](CCCCN)NC(=O)[C@H](CCCCN)NC(=O)CNC(=O)[C@H](C)N)[C@@H](C)O)[C@@H](C)CC)C(=O)N[C@@H](CCCCN)C(=O)N[C@@H](CCCCN)C(=O)N[C@@H](CCCCN)C(=O)NCC(=O)N[C@@H](CCCN=C(N)N)C(=O)N[C@@H](CCCCN)C(=O)N[C@@H](Cc1c[nH]c2ccccc12)C(=O)N[C@H](C(=O)N[C@H](C(=O)N[C@@H](C)C(=O)N[C@@H](Cc1c[nH]c2ccccc12)C(=O)O)[C@@H](C)CC)C(C)C` [AGKKTIRQYLKNKIKKKGRKWVIAW]: the MIC in [1] stood at 2 µM (≈ 6.09 µg/mL); in assay [2], 8 µM (≈ 24.3 µg/mL).

Take `CC[C@H](C)[C@H](NC(=O)[C@H](Cc1cnc[nH]1)NC(=O)[C@H](Cc1cnc[nH]1)NC(=O)[C@@H](NC(=O)[C@H](CC(C)C)NC(=O)[C@H](Cc1cnc[nH]1)NC(=O)CNC(=O)[C@H](CCCCN)NC(=O)CNC(=O)[C@H](Cc1cnc[nH]1)NC(=O)[C@H](CCCCN)NC(=O)[C@@H](NC(=O)[C@H](CO)NC(=O)CNC(=O)[C@H](CCCCN)NC(=O)[C@H](Cc1ccccc1)NC(=O)[C@H](CCCN=C(N)N)NC(=O)[C@H](CCCCN)NC(=O)[C@@H](N)Cc1ccccc1)C(C)C)C(C)C)C(=O)NCC(=O)N[C@H](C(=O)N[C@@H](C)C(=O)N[C@@H](CC(C)C)C(N)=O)C(C)C` [FKRFKGSVKHGKGHLVHHIGVAL]: the MIC in assay [3] is 4 µM and 8 µM; in assay [4], 4 µM (≈ 10.2 µg/mL); in assay [5] it was 8 µM and 4 µM; in [6], 2 µM and 4 µM; in [7], ≥ 32 µM and 16 µM; in assay [8], 8 µM and 16 µM.

In the case of `CC(C)C[C@H](NC(=O)CNC(=O)[C@H](CCCCN)NC(=O)[C@H](CS)NC(=O)[C@@H](NC(=O)[C@H](CCCN=C(N)N)NC(=O)[C@H](CCCCN)NC(=O)[C@H](CC(N)=O)NC(=O)[C@H](CC(N)=O)NC(=O)[C@H](CCC(N)=O)NC(=O)[C@H](CCCN=C(N)N)NC(=O)[C@@H](NC(=O)[C@H](CS)NC(=O)[C@@H](N)CCCCN)C(C)C)C(C)C)C(=O)N[C@@H](CCCN=C(N)N)C(=O)N[C@@H](CCCCN)C(=O)N[C@@H](CCCN=C(N)N)C(=O)N[C@@H](CC(C)C)C(=O)N[C@@H](CCCN=C(N)N)C(=O)N[C@@H](CCCCN)C(=O)N[C@@H](Cc1ccccc1)C(=O)N[C@@H](CCCN=C(N)N)C(=O)N[C@@H](CC(N)=O)C(=O)N[C@@H](CCCCN)C(N)=O` [KCVRQNNKRVCKGLRKRLRKFRNK], the results for the MIC in [9] and in assay [10] were 12.6 µM (≈ 38.3 µg/mL) and 13.5 µM (≈ 40.8 µg/mL), respectively.

Regarding `CC(C)C[C@H](NC(=O)[C@H](Cc1cnc[nH]1)NC(=O)[C@H](CC(C)C)NC(=O)[C@H](CC(C)C)NC(=O)[C@H](CC(C)C)NC(=O)[C@H](CC(C)C)NC(=O)[C@H](CC(C)C)NC(=O)[C@H](Cc1cnc[nH]1)NC(=O)[C@H](CC(C)C)NC(=O)[C@@H](N)Cc1cnc[nH]1)C(=O)N[C@@H](Cc1cnc[nH]1)C(N)=O` [HLHLLLLLHLH], the MIC in [11] was 25.8 µM (≈ 35 µg/mL); in assay [12], 11.8 µM (≈ 16 µg/mL); in assay [13], 25.8 µM (≈ 35 µg/mL).

As to `CC[C@H](C)[C@H](NC(=O)[C@H](CCCCN)NC(=O)[C@H](CCCCN)NC(=O)[C@H](Cc1ccccc1)NC(=O)[C@H](CC(C)C)NC(=O)[C@H](CCCCN)NC(=O)[C@@H](N)Cc1c[nH]c2ccccc12)C(=O)N[C@@H](CC(C)C)C(=O)N[C@@H](CCCCN)C(=O)N[C@H](C(=O)N[C@@H](CC(C)C)C(=O)O)C(C)C` [WKLFKKILKVL], the MIC in [14] was no less than 100 µM; in assay [15], 22.4 µM (≈ 31.7 µg/mL); in [16] it was no less than 100 µM; in [17], 22.4 µM (≈ 31.7 µg/mL).

In the case of `CC(C)C[C@H](NC(=O)[C@H](C)NC(=O)[C@H](CCCCN)NC(=O)[C@H](CC(C)C)NC(=O)[C@H](CCCCN)NC(=O)[C@H](CCCN=C(N)N)NC(=O)[C@H](CCCN=C(N)N)NC(=O)[C@H](Cc1c[nH]c2ccccc12)NC(=O)[C@H](C)N)C(=O)N[C@@H](C)C(=O)N1CCC[C@H]1C(=O)N[C@@H](C)C(=O)N[C@@H](CCCCN)C(=O)N[C@@H](CCCCN)C(=O)N[C@@H](C)C(=O)N[C@@H](CCCCN)C(=O)N[C@H](C(=O)O)C(C)C` [AWRRKLKALAPAKKAKV], in assay [18], the minimal inhibitory concentration (MIC) was 22.4 µM and ≥ 50 µM.

For `CC[C@H](C)[C@H](NC(=O)[C@H](CCCCN)NC(=O)[C@@H](NC(=O)[C@@H](NC(=O)[C@H](C)NC(=O)[C@@H]1CCCN1C(=O)[C@H](CC(C)C)NC(=O)[C@H](Cc1c[nH]c2ccccc12)NC(=O)[C@@H](N)[C@@H](C)O)C(C)C)[C@@H](C)CC)C(=O)N[C@@H](CCC(N)=O)C(=O)N[C@@H](C)C(=O)N[C@@H](Cc1cnc[nH]1)C(=O)N[C@@H](Cc1c[nH]c2ccccc12)C(=O)N[C@@H](CCCN=C(N)N)C(=O)NCC(=O)N[C@@H](Cc1ccc(O)cc1)C(=O)N[C@@H](CCCN=C(N)N)C(=O)N[C@@H](CCC(N)=O)C(=O)N[C@@H](CCCN=C(N)N)C(=O)N[C@@H](CCCCN)C(=O)N[C@H](C(=O)N[C@@H](Cc1ccc(O)cc1)C(=O)N[C@@H](CC(C)C)C(=O)O)[C@@H](C)CC` [TWLPAVIKIQAHWRGYRQRKIYL], the MIC in assay [6] is 1.97 µM (≈ 5.7 µg/mL); in assay [19], 24.8 µM (≈ 72 µg/mL); in [20], 1.66 µM (≈ 4.8 µg/mL).

For `CC[C@H](C)[C@H](NC(=O)[C@H](CCCCN)NC(=O)[C@H](CO)NC(=O)[C@H](Cc1ccccc1)NC(=O)[C@H](CC(C)C)NC(=O)[C@H](CCCCN)NC(=O)[C@H](CCC(=O)O)NC(=O)[C@H](CC(C)C)NC(=O)[C@H](CCCN=C(N)N)NC(=O)[C@H](CCCCN)NC(=O)[C@H](Cc1ccccc1)NC(=O)[C@@H](NC(=O)[C@H](CCCCN)NC(=O)[C@H](CCCCN)NC(=O)[C@H](C)N)C(C)C)C(=O)N[C@@H](Cc1ccccc1)C(=O)N[C@@H](CC(N)=O)C(=O)N[C@@H](Cc1ccccc1)C(=O)N[C@@H](CCCCN)C(N)=O` [AKKVFKRLEKLFSKIFNFK], the MIC in assay [21] was 3.13 µM (≈ 7.42 µg/mL); in assay [22] it was 3.13 µM (≈ 7.42 µg/mL); in assay [23], 6.25 µM (≈ 14.8 µg/mL); in assay [24] it was 1.56 µM (≈ 3.7 µg/mL); in [25], 0.78 µM (≈ 1.85 µg/mL); in assay [26] it was no less than 35.4 µM. In addition, the minimal inhibitory concentration (MIC) in [27] was 6.25 µM (≈ 14.8 µg/mL); in [28], 12.5 µM (≈ 29.6 µg/mL); in assay [29], 25 µM (≈ 59.3 µg/mL); in [30], no less than 50 µM; in assay [31], 6.25 µM (≈ 14.8 µg/mL); in assay [32], 3.13 µM (≈ 7.42 µg/mL). Moreover, the minimum inhibitory concentration (MIC) in assay [33] came out at 0.39 µM (≈ 0.925 µg/mL); in assay [34], 3.13 µM (≈ 7.42 µg/mL); in [35], 12.5 µM (≈ 29.6 µg/mL); in assay [36], 25 µM (≈ 59.3 µg/mL).

By MIC is commonly meant the lowest concentration that inhibits growth of the organism.
